One data set has as its system CYP3A4. The arrangement: method as in PMID 35279606. Particulars: previous study; read-out: CYP3A4 inhibition IC50; cited from earlier work.
Another data set addresses T1, OAT3 (Homo sapiens, UniProt Q8TCC7).
T1 sequence (Q8TCC7 1-542): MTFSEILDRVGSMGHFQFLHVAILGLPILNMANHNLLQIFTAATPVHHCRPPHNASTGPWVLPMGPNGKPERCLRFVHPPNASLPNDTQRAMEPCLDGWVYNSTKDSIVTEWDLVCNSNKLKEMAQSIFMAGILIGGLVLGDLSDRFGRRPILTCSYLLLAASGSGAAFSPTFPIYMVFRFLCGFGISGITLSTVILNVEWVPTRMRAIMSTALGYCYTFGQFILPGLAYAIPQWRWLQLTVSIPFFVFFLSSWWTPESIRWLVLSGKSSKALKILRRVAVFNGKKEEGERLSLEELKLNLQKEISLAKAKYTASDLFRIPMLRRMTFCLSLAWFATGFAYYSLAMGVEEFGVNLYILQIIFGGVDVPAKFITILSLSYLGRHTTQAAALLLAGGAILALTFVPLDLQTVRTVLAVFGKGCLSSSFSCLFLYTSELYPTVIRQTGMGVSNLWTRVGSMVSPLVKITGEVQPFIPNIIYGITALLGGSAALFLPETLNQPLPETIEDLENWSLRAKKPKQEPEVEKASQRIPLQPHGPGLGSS

Data set [1] relates to CYP2C9. As to the kind of experiment: Metabolic phenotype by rhCYP isozymes, CYP2C9. The format is in vitro ADME, human. The following applies: 7–16 1 µM. The method, then:
(§1) Based on the result of metabolite identification, two metabolites were selected as targets for metabolic phenotyping analysis. Seven CYP isozymes (CYP1A2, CYP2B6, CYP2C8, CYP2C9, CYP2C19, CYP2D6, and CYP3A4) were investigated using the rhCYP isozymes method. In brief, 7–16 (1 µΜ) was incubated with each rhCYP isozyme ([…]) in 100 mM sodium phosphate buffer (pH 7.4) containing 3 mM magnesium chloride. After 10 min of preincubation at 37 °C, the reactions were initiated by adding NADPH (1 mM) and then incubated at 37 °C in a shaking water bath for 0, 5, 15, and 30 min. The specific substrates of each rhCYP isozyme were incubated as the above method to confirm the activity of the incubation system. The samples were prepared in triplicates. The reactions were terminated by adding three times the volume of ice-cold acetonitrile (600 µL) and stored at −20 °C until analysis. After pre-treatment, the samples were determined by the LC–MS/MS (Shimadzu Exion-Triple Quad 4500) method. The relative contribution rate of each isozyme to the metabolism of 7–16 was evaluated in HLMs using the following formula: Contributionx% = Vx × Abundancex (pmol/mg protein)/Σ(Vi × Abundancei). Vx (µL/min/pmol) is the production rate of metabolites for each rhCYP isozyme.

A short description of data set [2]: Excretion and metabolite identification in urine and feces of intact rats. The format is in vivo, Sprague-Dawley rats. Particulars: intact rats, 0–168 h, oral 3 mg/100 µCi/kg. The method, then:
In the urine and feces excretion experiment, six rats (3 females and 3 males) were administered a single oral dose of [^14C]7–16 at 3 mg/100 µCi/kg. Urine, feces and cage washing/cleaning solution samples were collected from 0 to 168 h following drug administration at the following time intervals: 0–8, 8–24 h (0–24 h for feces), 24–48, 48–72, 72–96, 96–120, 120–144, and 144–168 h. In the biliary excretion experiment, 8 rats using a bile duct cannula (BDC) (4 females and 4 males) were administered a single oral dose of [^14C]7–16 at 3 mg/100 µCi/kg. Bile, urine, feces, and cage washing solution were collected from before and 0–72 h after oral administration at the following time intervals: 0–4, 4–8 (urine 0–8), 8–24 (feces 0–24), 24–48, and 48–72 h. All samples were collected and refrigerated at −20 °C until determination of the radioactive concentrations by liquid scintillation counter (Perkin Elmer Corporation, Waltham, MA, USA). Urine, feces, and bile samples at each time period were mixed by equal percentages of either volume or weight. After the mixed samples were treated, the radio-profiles and metabolite identification in the bile, urine, and feces samples were carried out by LC-RAM and UPLC-Q Exactive HRMS, and the TRA% of each metabolite in plasma and the percentage of dose (dose%) of each compound in urine, feces, and bile samples were calculated.

A further data set concerns CYP2C19. The data set can be described thus: Metabolic phenotype by rhCYP isozymes, CYP2C19. The data set is classed as in vitro ADME, human. Particulars: 7–16 1 µM. Here is the method: as §1
The target of the next data set is T2, OATP1B3 (Homo sapiens, UniProt Q9NPD5).
T2 sequence (Q9NPD5 1-702): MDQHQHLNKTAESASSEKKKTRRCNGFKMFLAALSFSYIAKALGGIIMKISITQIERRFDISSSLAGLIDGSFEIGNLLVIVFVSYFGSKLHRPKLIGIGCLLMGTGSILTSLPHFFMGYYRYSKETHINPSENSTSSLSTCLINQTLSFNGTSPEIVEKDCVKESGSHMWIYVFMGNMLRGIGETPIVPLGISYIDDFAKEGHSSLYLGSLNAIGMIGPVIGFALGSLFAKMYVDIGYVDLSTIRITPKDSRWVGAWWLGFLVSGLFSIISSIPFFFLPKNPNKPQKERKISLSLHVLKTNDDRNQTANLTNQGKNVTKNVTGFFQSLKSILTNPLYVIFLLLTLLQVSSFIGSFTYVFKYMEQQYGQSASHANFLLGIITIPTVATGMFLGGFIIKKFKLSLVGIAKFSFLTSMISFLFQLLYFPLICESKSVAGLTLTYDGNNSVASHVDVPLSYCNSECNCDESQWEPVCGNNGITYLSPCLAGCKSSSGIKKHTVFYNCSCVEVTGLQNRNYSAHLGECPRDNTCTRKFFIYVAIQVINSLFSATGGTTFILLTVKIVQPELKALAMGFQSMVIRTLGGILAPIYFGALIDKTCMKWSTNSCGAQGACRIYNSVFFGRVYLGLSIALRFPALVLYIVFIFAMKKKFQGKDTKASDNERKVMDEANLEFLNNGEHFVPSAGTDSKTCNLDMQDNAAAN

The test system of data set [3] is CYP2C9. Further details: method as in PMID 35279606. Particulars: previous study; read-out: CYP2C9 inhibition IC50; cited from earlier work.

pIC50: −log10 of the molar value.

As a reminder, the pIC50 is −log10 of the IC50, conventionally taken in molar units.

Regarding `CN1CCC(N(Cc2ccc(F)cn2)C(=O)NCc2ccc(OCC(F)(F)F)cc2)CC1` [7–16, 3-(4-(2,2,2-trifluoroethoxy)benzyl)-1-((5-fluoropyridin-2-yl)methyl)-1-(1-methylpiperidin-4-yl) urea], the pIC50 was below 4.20 with CYP3A4, below 4.00 against OAT3, 4.05 on OATP1B3 and below 4.20 in the data set on CYP2C9 [3]. For the same molecule, in the data set on CYP2C9 [1], the “relative contribution of CYP2C9 to metabolism” value is “little or no contribution”. Moreover, the “recovery of radioactivity in cage rinse/wash, percent of dose” value in data set [2] came out at 4.06%. The “recovery of radioactivity in feces, percent of dose” value in data set [2] turned out to be 55.0%. Also, the “recovery of radioactivity in urine, percent of dose” value in data set [2] was determined as 39.9%. Besides, the “total recovery of radioactivity, percent of administered dose” value in data set [2] (mean of both sexes) stood at 98.9%. The “relative contribution of CYP2C19 to metabolism” value with CYP2C19 is on record as “little or no contribution”.

(Values after paper PMC11124362, “Metabolism, Disposition, Excretion, and Potential Transporter Inhibition of 7–16, an Improving 5-HT2A Receptor Antagonist and Inverse Agonist for Parkinson’s Disease” (Molecules, 2024).)
